Patent publication US20220047719A1, “ENHANCING SUBCUTANEOUS INJECTION AND TARGET TISSUE ACCUMULATION OF NANOPARTICLES VIA CO-ADMINISTRATION WITH MACROPINOCYTOSIS INHIBITORY NANOPARTICLES (MINP)” (Northwestern University, priority 2020, published 2022)

How the values were obtained:
RAW264.7 macrophages [1] = test: In vitro macrophage cytotoxicity, Zombie Aqua live/dead assay; format: cell-based; details: free drug
Description: (§1) FIG. 2. […] (a) Cryogenic transmission electron microscopy (CryoTEM) of MiNP visually confirms retention of micellar structures. (b) MiNP with ((+) MiNP) and without ((−) MiNP) loaded LatA were characterized via small angle X-ray scattering (SAXS) and fitted with a micelle model fit using SASView. […] Cells were treated with each inhibitor for 2 h followed by 30 min of incubation with pHrodo dextran prior to analysis by flow cytometry. Data are shown as a percentile scale of endocytosis inhibition. On this scale, 0% represents standard cell uptake with no inhibitor, while 100% represents complete inhibition with no uptake of dye. N=3, p<0.001. […] N=3, p<0.001. […] Macrophages were incubated with various doses of free LatA or (+) MiNP for 4 h and assessed by flow cytometry for viability via the Zombie Aqua live/dead assay. N=3, p<0.05.
(§2) To investigate macropinocytosis inhibition by MiNP and determine whether this inhibition still permits uptake via receptor-mediated endocytosis, (+) MiNP were compared to chlorpromazine, an inhibitor of receptor-mediated endocytosis. These distinct mechanisms of endocytosis were evaluated using dextran conjugated pHrodo dye and transferrin conjugated pHrodo dye to respectively quantify effects of (+) MiNP and chlorpromazine on macropinocytosis (dextran) and receptor-mediated endocytosis (transferrin). […]

B16F10 melanoma cells = test: LatA inhibition of E-MC and E-MC(FA) uptake; format: cell-based, mouse; details: 0.5 μM LatA 2 h, then 30 min micelles
Description: FIG. 10. […] B16F10 melanoma cells were treated with 0.5 μM LatA for 2 h followed by 30 min of incubation with either non-targeted E-MC or folate receptor targeted E-MC(FA) prior to analysis by flow cytometry. Data are shown as percentage inhibition of endocytosis normalized to untreated […]. N=3, p<0.001.

RAW264.7 macrophages [2] = test: Macropinocytosis inhibition, dextran-pHrodo uptake by flow cytometry; format: cell-based; details: 2 h inhibitor, then 30 min dye
Description: as §1, §2

RAW264.7 macrophages [3] = test: Receptor-mediated endocytosis, transferrin-pHrodo uptake by flow cytometry; format: cell-based; details: 2 h inhibitor, then 30 min dye
Description: as §1, §2

Row | inhibition of transferrin-pHrodo uptake (receptor-mediated endocytosis) (RAW264.7 macrophages [3]) | inhibition of transferrin-pHrodo uptake (receptor-mediated endocytosis) (RAW264.7 macrophages [3]; listed as chlorpromazine) | SMILES | doses with significant toxicity to macrophages (RAW264.7 macrophages [1]) | inhibition of endocytosis of E-MC vs E-MC(FA) (B16F10 melanoma cells) | inhibition of dextran-pHrodo uptake (macropinocytosis) (RAW264.7 macrophages [2]) | inhibition of dextran-pHrodo uptake (macropinocytosis) (RAW264.7 macrophages [2]; listed as Free LatA)
1 | – | – | C/C1=C/C(=O)O[C@@H]2C[C@@H](CC[C@H](C)/C=C\C=C\CC1)O[C@@](O)([C@@H]1CSC(=O)N1)C2 [free LatA, latrunculin A] | ≥ 0.5 µM | inhibits uptake of non-targeted E-MC more than targeted E-MC(FA) | much stronger inhibition of uptake than free chlorpromazine | significantly inhibited macropinocytosis
2 | significantly inhibited endocytosis | significantly inhibited | CN(C)CCCN1c2ccccc2Sc2ccc(Cl)cc21 [free chlorpromazine, chlorpromazine] | – | – | – | –
